Experimental data from ChEMBL document CHEMBL1201862, “PubChem BioAssay data set” (2004).
Active and inactive are the calls of the source. Cut-off read from the data, not from the text of the source: actives have a measured IC50 and inactives only a lower limit.

These molecules were tested against Envelope glycoprotein gp160 (Human immunodeficiency virus 1, UniProt Q6QLK5) (assay: cell-free HIV fusion peptide-binding blockers – biochemical, uHTS, fluorescence dequenching, […] (AID 1986)).
Sequence of Envelope glycoprotein gp160 (Q6QLK5 whole entry, the tested form may be a part): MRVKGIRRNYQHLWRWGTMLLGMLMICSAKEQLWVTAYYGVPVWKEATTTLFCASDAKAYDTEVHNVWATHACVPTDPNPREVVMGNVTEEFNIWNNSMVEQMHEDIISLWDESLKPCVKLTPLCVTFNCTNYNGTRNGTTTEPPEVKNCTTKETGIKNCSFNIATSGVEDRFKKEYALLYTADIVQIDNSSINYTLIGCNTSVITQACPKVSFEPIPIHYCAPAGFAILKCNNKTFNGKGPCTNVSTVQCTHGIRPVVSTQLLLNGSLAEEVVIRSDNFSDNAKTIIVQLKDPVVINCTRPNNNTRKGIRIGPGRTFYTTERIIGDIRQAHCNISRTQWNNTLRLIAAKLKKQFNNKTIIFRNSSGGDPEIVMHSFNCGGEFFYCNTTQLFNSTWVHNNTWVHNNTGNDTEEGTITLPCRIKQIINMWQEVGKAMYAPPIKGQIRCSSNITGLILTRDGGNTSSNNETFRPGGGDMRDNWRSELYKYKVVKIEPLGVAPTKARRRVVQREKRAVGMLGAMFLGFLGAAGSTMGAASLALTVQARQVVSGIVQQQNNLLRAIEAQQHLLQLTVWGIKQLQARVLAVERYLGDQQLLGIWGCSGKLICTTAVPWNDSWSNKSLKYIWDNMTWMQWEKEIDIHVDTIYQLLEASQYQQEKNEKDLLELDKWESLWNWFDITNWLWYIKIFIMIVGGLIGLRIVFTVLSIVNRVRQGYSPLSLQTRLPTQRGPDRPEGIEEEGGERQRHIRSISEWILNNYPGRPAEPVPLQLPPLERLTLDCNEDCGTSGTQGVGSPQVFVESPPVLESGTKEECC
In the case of `O=C(CCN1C(=O)/C(=C/c2ccccc2Cl)SC1=S)Nc1ccccc1C(=O)O`, the IC50 is reported as 19.4 µM (active). In the case of `COc1cc(/C=C2\C(=N)N3N=C(S(C)(=O)=O)SC3=NC2=O)cc(OC)c1OCCOc1ccc(C)cc1`, the IC50 is reported as 11 µM (active). For `COC(=O)c1sc(-c2ccc(C(C)(C)C)cc2)cc1NC(=O)CSCC(=O)O`, the IC50 was 15.4 µM (active).
